What all share (assay type): binding, mouse
For test [1], the system named is hybridoma clone MAB 3/B4-1/F8. Description: competitive immunoassay (ELISA), cross reactivity with MAB 3/B4-1/F8. To be noted: n.b. = not determinable. How it is done: (§1) The screening conjugates described in Section 1.2 were used for this purpose. In addition, "Maxisorp" (from the Nunc Corporation) microtiter plates were used. The immunoscreening method, i.e., an indirect, competitive immunoassay with free antibodies, is shown in the form of a schematic diagram in FIG. 7. First, each of the microtiter plate depressions was coated with 300 μL of hapten OVA conjugate (10 μg/mL in carbonate buffer) (coating). This was carded out over the course of 15-18 hours at 4° C. Then the depressions were washed 3 times with, for example, PBS Tween 20 buffer. To block the unoccupied bonding sites on the microtiter plate, about 300 μL of 0.1% OVA solution was added to each depression. This batch was incubated for 1-2 hours and then washed again as described. To verify the results, two separate screening processes were used (FIG. 7):
(§2) In this immunoassay, the hapten-OVA conjugates bound in the solid phase (Section 1.2) compete with the free antigen in the form of a solution of a mixture of pyrethroids. For the direct detection (Section 5.1), 100 μL of PBS buffer and 100 μL of cell culture supernatant (Section 4) per depression are incubated for one hour at room temperature under gentle agitation. Then a washing step is carried out with PBS Tween 20 buffer. This is followed by incubation with the peroxidase-(POD)-conjugated anti-mouse antibodies known to those skilled in the art. After the addition of enzyme substrate, the color is developed. The reaction is stopped after 30 minutes with 2N H2 SO4 and evaluated by spectrophotometry. The positive hybridoma cells, which secrete a specific antibody, give a strong color signal.
(§3) For this purpose, 100 μL of analyte solution (10 mg/L of pyrethroid substance in mixture MIX I/II in PBS buffed and 100 μL of culture supernatant (Section 4) per depression in the microtiter plate are incubated for 1 hour at room temperature.
(§4) If the cell culture supernatant contains specific antibodies with high affinity for at least one substance in the mixture in question (MIX I/II), these bind to the free hapten present in excess (pyrethrins/pyrethroids) and not to the hapten conjugate bound in the solid phase. The monoclonal antibodies bound to the hapten are then removed in the following washing step. This is followed by the incubation, known to those skilled in the art, with peroxidase-(POD)-conjugated anti-mouse antibodies and by subsequent addition of enzyme substrate and color development. After a predetermined incubation time, the microtiter plates are evaluated by spectrophotometry. Positive hybridoma cells which secrete an antibody selective for the pyrethroids in MIX I/II give a weaker color signal or no signal at all. Hybridoma cells which secrete antibodies which bind non-specifically to the hapten conjugate cannot be displaced by the excess pyrethroid and give a corresponding color signal. If no antibodies are present in the culture supernatant, there is no color reaction in either of the two cases.
(§5) Pyrethrum, pyrethroids, their derivatives, and/or their metabolites are detected with the help of the hapten screening conjugates and biotin tracers described in Section 1 and by the use of the competitive immunoassay (ELISA) described in Section 5.
(§6) In the direct-competitive test for low-molecular substances such as pyrethroids, a competition for a constant number of antibody binding sites takes place between an unmarked analyte of unknown quantity (here: pyrethroid) and a tracer (marked hapten) of known quantity. The antibody is immobilized on a solid phase. Depending on the amount of unmarked analyte in the sample, the antibody binding sites are occupied to a greater or lesser extent by tracer or analyte. The tracer is detected by a color reaction, which means that the detection signal on the solid phase is inversely proportional to the amount of analyte detected. The color development is measured by spectrophotometry at a defined wavelength. […]

The subject of test [2] is hybridoma clone MAB 1/E2-5/B5. Description: competitive immunoassay (ELISA), cross reactivity with MAB 1/E2-5/B5. To be noted: n.b. = not determinable. How it is done:
as §1, §2, §3, §4, §5, §6

Test [3] concerns isolated monoclonal antibodies (groups 3/B4-1/F8 and 1/E2-5/B5). Put plainly: competitive ELISA with the isolated monoclonal antibodies (both groups). Particulars: both antibody groups. Here is the method:
as §1, with “This batch was incubated for 1-2 hours and then washed again as described. To verify the results, two separate screening processes were used (FIG. 7):” left out
In this immunoassay, the hapten-OVA conjugates bound in the solid phase (Section 1.2) compete with the free antigen in the form of a solution of a mixture of pyrethroids. […] The reaction is stopped after 30 minutes with 2N H2 SO4 and evaluated by spectrophotometry. […]
If the cell culture supernatant contains specific antibodies with high affinity for at least one substance in the mixture in question (MIX I/II), these bind to the free hapten present in excess (pyrethrins/pyrethroids) and not to the hapten conjugate bound in the solid phase. […] After a predetermined incubation time, the microtiter plates are evaluated by spectrophotometry. […]

As for `CC(C)=CC1C(C(=O)O)C1(C)C` (stereo not shown) [CTS, chrysanthemum acid], the “% cross reactivity” value in test [1] and in test [2] was “n.b” each time.

As for `O=C(O)c1cccc(Oc2ccccc2)c1` [PBZ, 3-phenoxybenzoic acid], the “% cross reactivity” value in test [1] and in test [2] was “n.b” each time.

Consider `C=CCC1=C(C)C(OC(=O)C2C(C=C(C)C)C2(C)C)CC1=O` (stereo not shown) [allethrin], for which the “% cross reactivity” value was 45% in test [1] and 100% in test [2].

On to `C=CCC1=C(C)C(OC(=O)[C@@H]2[C@@H](C=C(C)C)C2(C)C)CC1=O` (stereo partly shown) [bioallethrin], for which the “% cross reactivity” value in test [1] is reported as 100%; in test [2] it was 104%.

Consider `CC1(C)[C@H](C(=O)O)[C@@H]1C=C(Cl)Cl` [cis-PMS, (1R,cis)-permethric acid], for which the “% cross reactivity” value in test [1] and in test [2] was “n.b” each time. For the same compound, the “cross reactivity (in words)” value in test [3] was “little or no cross-reactivity”.

As for `CC1(C)C(C=C(Cl)Cl)C1C(=O)OC(C#N)c1ccc(F)c(Oc2ccccc2)c1` (stereo not shown) [cyfluthrin], in test [1], the “% cross reactivity” value is listed as “n.b”.

With `CC1(C)C(C=C(Cl)Cl)C1C(=O)OC(C#N)c1cccc(Oc2ccccc2)c1` (stereo not shown) [cypermethrin], the “% cross reactivity” value in test [1] is “n.b”.

Consider `CC1(C)[C@H](C(=O)O[C@H](C#N)c2cccc(Oc3ccccc3)c2)[C@@H]1C=C(Br)Br` [deltamethrin], for which the “% cross reactivity” value in test [1] and in test [2] was “n.b” each time.

For the compound `CC1(C)[C@H](C=C(Cl)Cl)[C@H]1C(=O)OCc1c(F)c(F)c(F)c(F)c1F` [fenfluthrin], the “% cross reactivity” value is listed as 2% in test [1] and 13% in test [2].

Consider `CC(C)C(C(=O)OC(C#N)c1cccc(Oc2ccccc2)c1)c1ccc(Cl)cc1` (stereo not shown) [fenvalerat], for which the “% cross reactivity” value in test [1] and in test [2] was “n.b” each time.

As for `CC1(C)C(C=C(Cl)Cl)C1C(=O)OCc1cccc(Oc2ccccc2)c1` (stereo not shown) [permethrin], the “% cross reactivity” value in test [1] is “n.b”.

As for `CC(C)=CC1C(C(=O)OCc2cccc(Oc3ccccc3)c2)C1(C)C` (stereo not shown) [phenothrin], the “% cross reactivity” value in test [1] is “n.b”; in test [2] it was 86%.

On to `CC1(C)[C@H](C=C(Cl)Cl)[C@H]1C(=O)O` [trans-PMS, (1R,trans)-permethric acid], for which the “% cross reactivity” value in test [1] is reported as “n.b”; in test [2], more than 1%. Further, in test [3], the “cross reactivity (in words)” value was “little or no cross-reactivity”.

The values above are taken from patent US5723306A, “Monoclonal antibodies for the detection of pyrethroids and a process for their production” (Dragerwerk Aktiengesellschaft, priority 1993, dated 1998).
